Data taken from patent US20120190752A1, “EXO-S-MECAMYLAMINE METHOD, USE, AND COMPOUND FOR TREATMENT” (Targacept Inc., priority 2009, published 2012).

Tested on: subjects with major depressive disorder (MDD) who were inadequate responders to citalopram
Assay: SIS (Sheehan Irritability Scale), total and individual items, Phase 2b add-on trial
Type: in vivo, human
Design: SIS Adj. Mean change / SIS total score change Adjusted Mean / SIS Anger With Others change Adjusted Mean / SIS Anger With Self change Adjusted Mean / SIS Edginess change Adjusted Mean / SIS Irritability change Adjusted Mean / SIS Moodiness change Adjusted Mean / SIS Temper change Adjusted Mean: scale not given here
Conditions: for SIS Difference vs placebo / SIS Adj. Mean change: ITT; for SIS Difference vs placebo: Week 8 to Week 16 LOCF; for SIS Adj. Mean change: change from Week 8 (double-blind baseline) to Week 16 LOCF, add-on to citalopram
Method: In more detail, a multi-center double-blind, randomized, placebo-controlled, parallel group, flexible dose titration study of TC-5214 as adjunctive therapy in subjects with major depressive disorder (MDD) who were inadequate responders to citalopram was conducted in centers in the US and India. The study consisted of a screening period, baseline/washout period, open-label phase, double-blind phase, and a follow-up visit. Subject participation in the study could continue for up to 16 weeks of treatment. Following a washout period of up to 28 days for other antidepressants, subjects with MDD and a MADRS total score >/=28 and a Clinical Global Impression-Severity (CGI-S) score >/=4 were enrolled on Day 1 into an open-label citalopram-only phase of the study. This phase lasted 8 weeks, with citalopram (CIT) dose increased from a once-daily dose of 20 mg (Day 1 through Week 4) to 40 mg (Week 4 through Week 8). A total of 579 subjects entered the open-label citalopram phase. At Week 8, subjects who tolerated 40 mg CIT, but whose MADRS score was reduced <50% from baseline and no lower than 17, and CGI-S≧4, were considered inadequate responders. These subjects (n=270) were randomized in a double-blind fashion to receive either placebo or TC-5214-23 as add-on therapy to continued CIT. The double-blind phase of the study also lasted 8 weeks (Week 8 to Week 16). Study drug, TC-5214-23 or placebo, was started at 2 mg daily (1 mg twice per day [BID] dosing), added on to continuing CIT (40 mg PO qd). After 2 weeks of treatment, the dose of TC-5214 could be increased to 4 mg (2 mg BID) or continued unchanged, with up-titration based upon good tolerability and inadequate therapeutic response. After a further 2 weeks, the dose of TC-5214 could be increased again to 8 mg (4 mg BID) if judged appropriate by the investigator, based upon good tolerability and inadequate therapeutic response. At any time during the double-blind phase of the study, placebo or TC-5214-23 could be reduced to the previous dose level following the emergence of unacceptable adverse events (AEs). […] At this follow-up, any signs or symptoms of relapse were evaluated. If a subject was prematurely discontinued from the study between Week 8 and Week 16 for any reason, the investigator was to make every effort to perform all evaluations as per protocol, assuming the subject had reached the end of the double-blind add-on treatment phase. These evaluations were to be made as soon as possible and within 2 weeks of discontinuation. […] There was no meaningful difference in results as a function of age, gender, site, or smoking status. [table] With regard to efficacy endpoints, the following tables present efficacy used in the ITT (Intent-to-Treat) and PP (Per Protocol) populations unless otherwise specific. The primary inference was based upon Week 16 visit using the ITT population. Change from baseline was obtained by subtracting the baseline values from the individual on-treatment values. Change from Week 16 was obtained by subtracting the Week 16 values from the individual follow-up visit (Week 18/19) values. If either the baseline or Week 16 or on-treatment or follow-up value was missing, the change from baseline or Week 16 value was also set to missing. To account for missing data, the last observation carry forward (LOCF) method was used for the ITT and PP populations. Thus, the last available on-therapy observation for a subject, including the observation at premature discontinuation, was used to estimate subsequent missing data points. For efficacy, baseline data were collected at Week 8 in the double-blind augmentation phase electronic case report form pages. For SIS, the endpoint was the change from Week 8 (double-blind baseline) to Week 16 of the SIS. Changes were analyzed using ANCOVA. Each SIS item score was also analyzed using ANCOVA. […]

[1] = ITT Population, Double Blind Week 16 LOCF, change from Week 8 (double-blind baseline)
[2] = ITT Population, Double Blind Week 18 LOCF (Follow-up)
[3] = ITT and PP populations, result in words
[4] = PP Population, Double Blind Week 16 LOCF, change from Week 8 (double-blind baseline)
[5] = PP Population, Double Blind Week 18 LOCF (Follow-up)

SMILES: CNC1(C)C2CCC(C2)C1(C)C (stereo in doubt) [TC-5214, (S)—N,2,3,3-tetramethylnorbornan-2-amine]
- SIS total score change Adjusted Mean [1]: −18.21
- SIS total score change Mean Difference between TC-5214 and Placebo [1]: 8.76
- SIS total score change Adjusted Mean [2]: −0.68
- SIS total score change Mean Difference between TC-5214 and Placebo [2]: −0.51
- SIS total score change from baseline compared with placebo [3]: statistically significant decreases (improvements)
- each SIS individual item change from baseline compared with placebo [3]: statistically significant decreases (improvements)
- SIS Difference vs placebo: −8.54 (−11.65, −5.44)
- SIS Difference vs placebo (listed as TC-5214 + CIT): −8.54
- SIS Adj. Mean change: −18.21 (1.12)
- SIS Adj. Mean change (listed as TC-5214 + CIT): −18.21
- SIS total score change Adjusted Mean [4]: −19.96
- SIS total score change Mean Difference between TC-5214 and Placebo [4]: 10.04
- SIS total score change Adjusted Mean [5]: −0.77
- SIS total score change Mean Difference between TC-5214 and Placebo [5]: −0.34
